Source: patent US6288110A, “Pharmaceutical compositions comprising disulfiram” (Yeda Research and Development Co Ltd., priority 1998, dated 2001)
Where two headings read alike, the source gives them in different places.

Key:
[1] = test system: tumor progression from papilloma to squamous cell carcinoma; details: murine skin multistage carcinogenesis model; cited from earlier work
[2] = test system: neovascularization induced by bFGF; experiment: Subcutaneous angiogenesis in nude mice (bFGF agarose bead), disulfiram per os; format: in vivo, CD1 nude male mice
Method: FIGS. 1A-1C show inhibition of neovascularization in nude mice by disulfiram (D). […] Bar is one mm.
Spherical agarose beads of approximately 1 mm in diameter were formed from 4% low gelling temperature agarose (Sigma) in PBS containing b-FGF or HB-EGF as angiogenic agent. The candidate angiogenic agent (10 μg/bead) was warmed in sterile microtest tubes to 40° C. in a dry-bath for a few seconds. 10 μl of agarose solution (6% in saline, 45° C.) were then added to 5 μl of the angiogenic compound and beads were formed above ice using a 20 μl pipette tip. Beads were implanted subcutaneously 1 cm away from the incision-site as reported previously for multicellular spheroids (Abramovitch, 1995) in mice anesthetized with a single dose of 75 mg/kg ketamine+3 mg/kg xylazine (i.p.). Experiments were carried out for 4 days in CD1 nude male mice. Each day one ml of aqueous solutions with or without 0.1-0.25 mM (25-60 μg) disulfiram was introduced per os to the mice using a feeding needle. Treatment was for three days starting from the day of bead implantation until one day before termination. Experiments were done in quadruplicates and repeated three times.
Agarose beads containing the angiogenic factor bFGF (10 μg/bead) were implanted subcutaneously into CD1 nude mice as described in section (d) of "Materials and Methods" above. […]

[3] = test system: C6 rat glioma cells; experiment: DNA synthesis (3H-thymidine incorporation) in C6 rat glioma cells; format: cell-based; details: for IC (maximal): Rattus norvegicus
Method: C6 rat glioma cells were routinely cultured in DMEM supplemented with 5% FCS (Biological Industries, Israel), GPS (100 U/ml penicillin, […] streptomycin (Biological Industries, Israel) and 2 mM glutamine (Biolab Ltd. Israel)) and 125 μg/ml fungizone (Biolab Ltd, Israel).
C6 rat glioma cells were plated in 96-well plates (Nunc, Denmark) (5000 cells per well) in DMEM with 5% FCS. After 6 hours the cells were rinsed and incubated for 48 hours in serum free medium. 5% FCS or growth factors were then added to the cells for 24 hours (triplicates). ^3 H-methyl-thymidine (5μCi/ml) (Rotem Ind. Ltd., Israel) was added to the cells for the last 14 hours. The cells were rinsed with 100 μl methanol for 10 minutes, followed by 200 μl 5% trichloroacetic acid, and then rinsed and lysed with 150 μl 0.3M NaOH. Radioactive thymidine incorporated into the DNA was determined for 1 min with 3 ml scintillation liquid (ULTIMA GOLD Packard) in a β-counter. DNA synthesis assays were performed in triplicates.
Disulfiram was prepared in 0.1 mM stock solutions in DMSO. Control samples were incubated with the appropriate concentration of DMSO. Inhibition was calculated as percentage of DNA synthesis of control.
To determine whether disulfiram acts directly on endothelial cells rather than on accessory cells such as macrophages and mast cells that can be responsible for the development of an angiogenic response in vivo, the effect of the drug on the growth of BCE cells was examined in vitro as described in section (c) of "Materials and Methods" above. DNA synthesis in BCE cells was measured in presence of increasing concentrations of disulfiram incubated for 24 hours with the cells. […] Maximal inhibitory activity (80%) for BSMC was at 0.5-1 μM disulfiram, while maximal inhibitory activity for C6 glioma cells or BALB/MK keratinocytes was at concentrations 10 fold higher (2-3 μM) than those for endothelial cells (0.2-0.5 μM).
To examine the time course of the effect of disulfiram and whether the effect was reversible, cells were incubated with disulfiram for various periods of time (1, 2, 4 and 24 hours), then washed away and DNA synthesis was determined. One to 4 hours of exposure to disulfiram were enough to induce maximal inhibitory effect at concentrations ranging from 0.5 μM for BCE cells (FIG. 3A) to 5 μM for BALB/MK keratinocytes (FIG. 3C) and C6 glioma cells (FIG. 3D). […] BSMC were less sensitive as far as time course is concerned when incubated with 1 μM disulfiram. Following 4 hours of incubation with 1 μM disulfiram, DNA synthesis inhibition in BSMC reached only 50% (FIG. 3B). […]

[4] = test system: BALB/MK keratinocytes; experiment: TUNEL assay for apoptosis, BALB/MK keratinocytes; format: cell-based, murine; details: 5 μM
Method: Cells were cultured on microscope slides for 48 hours in presence of growth media as described above, until reaching 40-50% confluency. […] Apoptosis was analyzed by the in situ TUNEL staining carried out as described (Wride, 1994). Briefly, microscope slides were incubated for 15 min in 2×SSC buffer at 60° C., washed in DDW and incubated with 20 μg/ml proteinase K (Boehringer Mannheim) for 15 min at room temperature. After a wash with DDW, endogenous peroxidases were inactivated by incubating the slides with 2% H2 O2 in PBST (PBS with 0.05% Tween 20) for 10 min at room temperature. Slides were then incubated in TdT buffer (Boehringer Mannheim) for 5 min at room temperature, and a reaction mixture containing 5×TdT buffer and 1 μl biotin-21-dUTP (Clontech, 1 mM stock) and 8 units of the TdT enzyme (Boehringer Mannheim) in total volume of 50 μl was subsequently added. The reactions were carried out at 37° C. for 1.5 hr in a humid chamber. The slides were washed in 2×SSC, DDW and finally with PBS and covered with 10% skim milk in PBST for 15 min. After removal of the skim milk, the sections were incubated with ABC solution from ABC kit (Vector Laboratories, Inc.) for 30 min at room temperature, washed with PBS and stained using AEC procedure (Sigma) The slides were then washed ×3 in DDW and stained with haematoxylin for 30 sec and mounted by Kaiser's glycerol gelatin (Merck). […]

For CCN(CC)C(=S)SSC(=S)N(CC)CC [disulfiram, Bis(diethylthiocarbamoyl) disulfide], the “inhibition of tumor progression” value [1] is listed as “inhibit tumor progression”, the “inhibition of neovascularization induced by bFGF inside and around the bead” value ([2]; 60 μg/mouse systemically, 4 days after implantation) is listed as “inhibited almost completely” and the “angiogenesis around the beads containing bFGF” value ([2]; 25-60 μg/mouse/day per os, 3 days (1 ml of 0.1-0.25 mM)) is listed as “clearly inhibited”. For the same compound, the “maximal inhibitory concentration relative to endothelial cells, fold higher” value ([3]; C6 glioma vs endothelial cells (0.2-0.5 μM)) was 10 fold, the “persistence of inhibitory effect after short exposure” value ([3]; C6 glioma, 24 hours following short exposure) was “inhibitory effect seemed to be maintained” and the IC (maximal) ([3]; C6 glioma cells, read-out: concentration of maximal inhibitory activity (DNA synthesis)) was 2 to 3 µM. The IC (maximal) ([3]; C6 glioma, 1 to 4 hours of exposure, washed, read-out: concentration inducing maximal inhibitory effect on DNA synthesis, short exposure) was 5 µM and the “apoptosis by TUNEL method” value [4] was “did not induce”.
